Source: ChEMBL document CHEMBL1148912, “New diterpenoids from the marine mangrove Bruguiera gymnorrhiza” (J Nat Prod, 2004)
Values after ≈ are worked out from the molar mass of the structure shown.

Assays:
[1] = Growth inhibition of mouse L929 cells; format: cell-based
[2] = tested on: K562; assay: Growth inhibition of human K562 cells; format: functional
[3] = tested on: HeLa; assay: Cytotoxicity against human HeLa cells; format: functional

Row | Compound | GI50 [2] [mg/L] | GI50 [1] [mg/L] | CC50 [3] [mg/L]
1 | C[C@@]12CCC[C@@](C)(C(=O)O)[C@H]1CC[C@@]13C[C@H](CO)[C@@H](CC[C@H]12)C3 | 32.8 (≈ 102 µM) | 42.4 (≈ 132 µM) | 43 (≈ 134 µM)
2 | COC(=O)[C@]1(C)CCC[C@@]2(C)[C@@H]3CC[C@H]4C[C@]3(CC[C@@H]21)C[C@]4(O)CO | 27.7 (≈ 79 µM) | 39.5 (≈ 113 µM) | 40.5 (≈ 116 µM)
3 | C=C1C[C@@]23CC[C@@H]4[C@](C)(CO)CCC[C@@]4(C)[C@@H]2CC[C@H]1C3 | 6.8 (≈ 23.6 µM) | 18.2 (≈ 63.1 µM) | 32.8 (≈ 114 µM)
4 | C=C1C[C@]23CC[C@H]4[C@@](C)(CCC[C@@]4(C)C=O)[C@@H]2CC[C@@]1(O)C3 | 10.5 (≈ 34.7 µM) | 11.5 (≈ 38 µM) | 42.3 (≈ 140 µM)
5 | CC(=O)O[C@H]1C(=O)[C@@]2(C)[C@H]([C@H](OC(=O)c3ccccc3)[C@]3(O)C[C@H](OC(=O)[C@H](O)[C@@H](NC(=O)c4ccccc4)c4ccccc4)C(C)=C1C3(C)C)[C@]1(OC(C)=O)CO[C@@H]1C[C@@H]2O [PACLITAXEL] | 0.01 (≈ 0.0117 µM) | 0.1 (≈ 0.117 µM) | 0.01 (≈ 0.0117 µM)

The next lines start with results.

Row | GI50 [2] [mg/L] | Compound | GI50 [1] [mg/L] | CC50 [3] [mg/L]
6 | 29.2 (≈ 82.3 µM) | C[C@@]12CCC[C@@](C)(C=O)[C@H]1CC[C@]13C[C@](O)(CC[C@H]12)[C@](O)(CCl)C3 | 50 (≈ 141 µM) | 38.2 (≈ 108 µM)
7 | 13.6 (≈ 44.4 µM) | C[C@@]1(CO)CCC[C@]2(C)[C@@H]1CC[C@@]13C[C@H](CO)[C@@H](CC[C@H]12)C3 | 12.8 (≈ 41.8 µM) | 35.7 (≈ 116 µM)
8 | 26.7 (≈ 76.6 µM) | COC(=O)[C@]1(C)CCC[C@@]2(C)C3=CC[C@H]4C[C@]3(CC[C@H]12)C[C@]4(O)CO | 41.9 (≈ 120 µM) | 38.7 (≈ 111 µM)
9 | 50 (≈ 157 µM) | C[C@@]12CCC[C@@](C)(C=O)[C@H]1CC[C@@]13CC(=O)[C@](CO)(CC[C@H]12)C3 | 45.4 (≈ 143 µM) | 37.7 (≈ 118 µM)
10 | 50 (≈ 164 µM) | C=C1C[C@]23CC[C@@H]4[C@](C)(CO)CCC[C@@]4(C)[C@@H]2CC[C@@]1(O)C3 | 50 (≈ 164 µM) | 50 (≈ 164 µM)
11 | 50 (≈ 156 µM) | C[C@@]12CCC[C@@](C)(C=O)[C@H]1CC[C@@]13C[C@@H](CC[C@H]12)[C@@](O)(CO)C3 | 50 (≈ 156 µM) | 50 (≈ 156 µM)
